Marks after values point to notes of the source that are not given here.
Tested on: dogs
Assay: Plasma cholesterol lowering in dogs, oral bolus (rapid release) vs 24 h gastric infusion (Example 1)
Type: in vivo
Settings: ammonium salt, 10 mg/kg/day for 28 days, vs pre-dosing level
Protocol: 7-[1,2,6,7,8,8a(R)-hexahydro-2(S),6(R)-dimethyl-8(S)-(2,2-dimethylbutyryloxy)-naphthalenyl-1(S)]-3(R),5(R)-dihydroxyheptanoic acid, an HMG-CoA reductase inhibitor which is the ring opened dihydroxy acid of simvastatin, was administered to dogs as the ammonium salt as either an oral bolus dose (rapid release) or as a continuous gastric infusion over 24 hours (simulated controlled release). In both cases, each dog received a dose of 10 mg/kg/day for 28 days of the above named HMG-CoA reductase inhibitor. Plasma cholesterol was determined throughout the entire study and drug-treatment levels compared to control cholesterol levels (pre-dosing) for each dog. Circulating plasma levels of the above named HMG-CoA reductase inhibitor were determined on Day 16 of each drug dosing period.

CCC(C)(C)C(=O)O[C@H]1C[C@@H](C)C=C2C=C[C@H](C)[C@H](CC[C@@H](O)C[C@@H](O)CC(=O)O)[C@H]21 [7-[1,2,6,7,8,8a(R)-hexahydro-2(S),6(R)-dimethyl-8(S)-(2,2-dimethylbutyryloxy)-naphthalenyl-1(S)]-3(R),5(R)-dihydroxyheptanoic acid]
Mean Maximum Reduction In Plasma Cholesterol (continuous gastric infusion over 24 hours (simulated controlled release), mean ± SD, n = 4 dogs): 60 ± 4.0^b percent | Mean Maximum Reduction In Plasma Cholesterol (oral bolus dose (rapid release), n = 1 dog): 31^a percent

From patent EP0465096A1, “Plasma cholesterol level lowering composition” (MERCK & CO. INC., priority 1990, dated 1992)
